# In US20250074920A1, “MACROCYCLIC COMPOUNDS AND USE AS KINASE INHIBITORS” (BLOSSOMHILL THERAPEUTICS, INC., priority 2022, published 2025):
# How the values were obtained:
# Assay in all cases: KINOMEscan kinase binding assay
# [1] = test system: ABL1(H396P)-phosphorylated; conditions: at 1 μM
# Summary of the method: (§1)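 We measured how much kinase stayed bound to an immobilized small-molecule ligand when test compound was present. Binding ran at room temperature for 1 h, and the kinase eluted from the beads was counted by qPCR. Lower % Ctrl indicated tighter compound binding.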
# [2] = test system: ABL1(Q252H)-nonphosphorylated; conditions: at 1 μM
# Summary of the method: as §1
# [3] = test system: ABL1(Y253F)-phosphorylated; conditions: at 1 μM
# Summary of the method: as §1
# [4] = test system: ABL1-nonphosphorylated; conditions: at 1 μM
# Summary of the method: as §1
# [5] = test system: CSK; conditions: at 1 μM
# Summary of the method: as §1
# [6] = test system: EGFR(E746-A750del); conditions: at 1 μM
# Summary of the method: as §1
# [7] = test system: EGFR(G719C); conditions: at 1 μM
# Summary of the method: as §1
# [8] = test system: EPHA1; conditions: at 1 μM
# Summary of the method: (§2)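 Steps: biotinylated ligand loaded onto streptavidin beads (30 min RT), then biotin-blocked; kinase, beads and compound combined in SeaBlock/PBS/Tween/DTT buffer for 1 h RT; beads washed; kinase eluted with 0.5 μM non-biotinylated ligand; eluate quantified by qPCR.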
# [9] = test system: EPHA3; conditions: at 1 μM
# Summary of the method: as §2
# [10] = test system: EPHA5; conditions: at 1 μM
# Summary of the method: as §2
# [11] = test system: EPHA8; conditions: at 1 μM
# Summary of the method: as §1
# [12] = test system: ERBB2; conditions: at 1 μM
# Summary of the method: as §1
# [13] = test system: FGFR3(G697C); conditions: at 1 μM
# Summary of the method: as §1
# [14] = test system: FGFR3; conditions: at 1 μM
# Summary of the method: as §1
# [15] = test system: FGR; conditions: at 1 μM
# Summary of the method: as §1
# [16] = test system: FLT3(D835Y); conditions: at 1 μM
# Summary of the method: as §1
# [17] = test system: FLT3-autoinhibited; conditions: at 1 μM
# Summary of the method: as §1
# [18] = test system: FLT4; conditions: at 1 μM
# Summary of the method: as §1
# [19] = test system: FYN; conditions: at 1 μM
# Summary of the method: as §1
# [20] = test system: JAK3(JH1domain-catalytic)
# Summary of the method: as §2
# [21] = test system: KIT(V559D); conditions: at 1 μM
# Summary of the method: as §1
# [22] = test system: KIT(V559D, V654A); conditions: at 1 μM
# Summary of the method: as §1
# [23] = test system: KIT-autoinhibited; conditions: at 1 μM
# Summary of the method: as §1
# [24] = test system: LCK; conditions: at 1 μM
# Summary of the method: as §1
# [25] = test system: LYN; conditions: at 1 μM
# Summary of the method: as §1
# [26] = test system: MERTK; conditions: at 1 μM
# Summary of the method: as §1
# [27] = test system: PDGFRA; conditions: at 1 μM
# Summary of the method: as §1
# [28] = test system: PDGFRB; conditions: at 1 μM
# Summary of the method: as §1
# [29] = test system: RET(V804M); conditions: at 1 μM
# Summary of the method: as §1
# [30] = test system: RET; conditions: at 1 μM
# Summary of the method: as §1
# [31] = test system: ROS1; conditions: at 1 μM
# Summary of the method: as §1
# [32] = test system: SRMS; conditions: at 1 μM
# Summary of the method: as §1
# [33] = test system: SYK; conditions: at 1 μM
# Summary of the method: as §1
# [34] = test system: TIE2; conditions: at 1 μM
# Summary of the method: as §1
# [35] = test system: TNK1; conditions: at 1 μM
# Summary of the method: as §1
# [36] = test system: TRKB; conditions: at 1 μM
# Summary of the method: as §1
# [37] = test system: TXK; conditions: at 1 μM
# Summary of the method: as §1
# [38] = test system: TYK2(JH1domain-catalytic)
# Summary of the method: as §2
# [39] = test system: TYRO3; conditions: at 1 μM
# Summary of the method: as §1
# [40] = test system: YES; conditions: at 1 μM
# Summary of the method: as §1
structure (smiles),measurement,setting,value
"Cc1cc2c([nH]1)/C=C1\C(=O)Nc3c(Cl)cc(cc31)-c1cn(C)nc1COC[C@@H](C)N(C)C2=O [Cpd. 5, [3a(4)Z,10R]-20-chloro-6,9,10,15-tetramethyl-10,11,13,15-tetrahydro-2H-1,17-(ethanediylidene)pyrazolo[4,3-m]dipyrrolo[3,2-f:3′,4′-i][1,4]oxazacyclopentadecine-3,8(5H,9H)-dione]",% Ctrl,[1],80%
same,% Ctrl,[2],79%
same,% Ctrl,[3],73%
same,% Ctrl,[4],87%
same,% Ctrl,[5],96%
same,% Ctrl,[6],95%
same,% Ctrl,[7],100%
same,% Ctrl,[8],82%
same,% Ctrl,[9],79%
same,% Ctrl,[10],97%
same,% Ctrl,[11],77%
same,% Ctrl,[12],100%
same,% Ctrl,[13],93%
same,% Ctrl,[14],90%
same,% Ctrl,[15],93%
same,% Ctrl,[16],100%
same,% Ctrl,[17],87%
same,% Ctrl,[18],98%
same,% Ctrl,[19],77%
same,% Ctrl,"[20]; JAK3(JH1domain-catalytic), at 1 μM",79%
same,Kd,[20]; read-out: JAK3(JH1 domain-catalytic) Kd,> 10 µM
same,% Ctrl,[21],96%
same,% Ctrl,[22],91%
same,% Ctrl,[23],83%
same,% Ctrl,[24],94%
same,% Ctrl,[25],91%
same,% Ctrl,[26],86%
same,% Ctrl,[27],95%
same,% Ctrl,[28],100%
same,% Ctrl,[29],90%
same,% Ctrl,[30],95%
same,% Ctrl,[31],69%
same,% Ctrl,[32],61%
same,% Ctrl,[33],90%
same,% Ctrl,[34],92%
same,% Ctrl,[35],91%
same,% Ctrl,[36],100%
same,% Ctrl,[37],94%
same,% Ctrl,"[38]; TYK2(JH1domain-catalytic), at 1 μM",69%
same,Kd,[38]; read-out: TYK2(JH1 domain-catalytic) Kd,> 10 µM
same,% Ctrl,[39],84%
same,% Ctrl,[40],86%
